Results from BindingDB's records for doi:10.1021/jm021114j (Cardiff University, 2003).

The molecules below were run against Sterol 24-C-methyltransferase (Leishmania major) (assay: In vitro inhibitory concentration against Leishmania major Sterol 24-C-methyltransferase (24-SMT)).
`CC(O)(C1CCCCN1)[C@H]1CC[C@H]2[C@@H]3CCC4C[C@@H](O[Si](C)(C)C(C)(C)C)CC[C@]4(C)[C@H]3CC[C@]12C` (stereo not given in full) was tested, and the IC50 was 12.2 µM.
`CC(O)(C1CCCNC1)[C@H]1CCC2C3CCC4C[C@@H](O[Si](C)(C)C(C)(C)C)CC[C@]4(C)C3CC[C@@]21C` (stereo partly drawn) [1-[(3S,10S,13S,17S)-3-(tert-Butyl-dimethyl-silanyloxy)-10,13-dimethyl-hexadecahydro-cyclopenta[a]phenanthren-17-yl]-1-piperidin-3-yl-ethanol] was tested, and the IC50 was 8 µM.
Molecule `CCC(=O)N1CCCCC1C(C)(O)[C@H]1CCC2C3CCC4C[C@@H](O)CC[C@]4(C)C3CC[C@@]21C` (stereo partly drawn) [1-{2-[1-Hydroxy-1-((3S,10S,13S,17S)-3-hydroxy-10,13-dimethyl-hexadecahydro-cyclopenta[a]phenanthren-17-yl)-ethyl]-piperidin-1-yl}-propan-1-one] has an IC50 of 12.9 µM.
Work on `CC(O)(C1CCCNC1)[C@H]1CCC2C3CCC4C[C@@H](O)CC[C@]4(C)C3CC[C@@]21C` (stereo partly drawn) [(3S,10S,13S,17S)-17-(1-Hydroxy-1-piperidin-3-yl-ethyl)-10,13-dimethyl-hexadecahydro-cyclopenta[a]phenanthren-3-ol] yielded an IC50 of 0.1 µM.
`CC(O)(c1cccnc1)[C@H]1CCC2C3CCC4C[C@@H](O)CC[C@]4(C)C3CC[C@@]21C` (stereo partly drawn) [(3S,10S,13S,17S)-17-(1-Hydroxy-1-pyridin-3-yl-ethyl)-10,13-dimethyl-hexadecahydro-cyclopenta[a]phenanthren-3-ol] was tested, and the IC50 was 38.5 µM.
